In PMC10319141, “Imidazoquinolines with improved pharmacokinetic properties induce a high IFNα to TNFα ratio in vitro and in vivo” (Frontiers in Immunology, 2023):
Read-outs that look alike come from different tables or passages of the source.

What was measured:
[1] = target: T1, human TLR7 (Homo sapiens, UniProt Q9NYK1); test: HEK-Blue hTLR7 SEAP reporter assay; type: cell-based; settings: for TLR7 activity rel. to assay max: average maximal SEAP secretion relative to maximum secretion observed in the assay
T1 construct: host or cells: HEK blue hTLR7 reporter cells
T1 sequence (Q9NYK1 27-1049): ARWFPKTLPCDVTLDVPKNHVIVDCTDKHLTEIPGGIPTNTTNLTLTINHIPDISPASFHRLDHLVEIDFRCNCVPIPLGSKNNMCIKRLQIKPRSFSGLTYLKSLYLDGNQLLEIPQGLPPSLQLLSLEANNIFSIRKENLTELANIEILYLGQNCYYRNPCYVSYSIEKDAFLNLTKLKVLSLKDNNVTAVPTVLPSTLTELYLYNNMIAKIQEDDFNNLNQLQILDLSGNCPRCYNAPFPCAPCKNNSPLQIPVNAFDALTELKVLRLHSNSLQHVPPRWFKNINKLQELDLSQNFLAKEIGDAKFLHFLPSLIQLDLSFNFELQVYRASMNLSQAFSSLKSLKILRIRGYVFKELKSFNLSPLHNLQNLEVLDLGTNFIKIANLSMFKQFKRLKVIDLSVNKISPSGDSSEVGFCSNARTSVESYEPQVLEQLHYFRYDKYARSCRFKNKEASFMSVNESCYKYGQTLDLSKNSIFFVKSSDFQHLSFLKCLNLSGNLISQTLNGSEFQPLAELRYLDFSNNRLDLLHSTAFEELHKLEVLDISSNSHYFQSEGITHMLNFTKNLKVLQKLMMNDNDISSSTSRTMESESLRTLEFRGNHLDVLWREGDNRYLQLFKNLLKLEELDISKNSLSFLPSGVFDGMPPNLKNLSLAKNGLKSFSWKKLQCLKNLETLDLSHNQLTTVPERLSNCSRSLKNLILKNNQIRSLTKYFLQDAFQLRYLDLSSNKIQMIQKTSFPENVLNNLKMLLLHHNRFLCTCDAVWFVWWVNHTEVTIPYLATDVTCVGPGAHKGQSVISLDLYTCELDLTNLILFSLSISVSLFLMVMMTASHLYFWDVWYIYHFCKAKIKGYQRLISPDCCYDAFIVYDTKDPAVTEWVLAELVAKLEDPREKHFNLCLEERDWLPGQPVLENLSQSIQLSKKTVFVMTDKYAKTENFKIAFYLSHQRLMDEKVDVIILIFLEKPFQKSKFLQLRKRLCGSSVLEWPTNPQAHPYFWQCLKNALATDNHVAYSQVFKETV
Procedure: (§1) HEK blue hTLR7 or hTLR8 reporter cells (Invivogen) were cultivated in DMEM High Glucose (Biowest) according to the manufacturer’s instructions. Cells were treated with test compounds and controls at various concentrations in serum-free DMEM and incubated at 37°C, 5% CO2 for 24 h before supernatants were collected.
(§2) Relative secreted embryonic alkaline phosphatase (SEAP) activity in the supernatants was determined by quantification of para-Nitrophenyl Phosphate (pNPP)-turnover. Supernatants were diluted 10-fold in a solution containing 1 mM MgCl2, 1 M diethanolamine and 1 mg/mL pNPP and incubated at RT for 15 min before the reaction was stopped by the addition of 0.25 volumes of 1 M NaOH. Absorbance was measured at 405 nm on a Versamax microplate reader (Molecular Devices) and normalized to the mean of >5 solvent controls.
(§3) To obtain reliable estimates, replicate measurements of a minimum of 2 experiments were normalized to the maximal SEAP activity of a compound in a given experiment and pooled before fitting a non-linear function to the data.

[2] = target: T2, human TLR8 (Homo sapiens, UniProt Q9NR97); test: HEK-Blue hTLR8 SEAP reporter assay; type: cell-based; settings: for TLR8 activity rel. to assay max: average maximal SEAP secretion relative to maximum secretion observed in the assay; for SEAP secretion from HEK-Blue hTLR-8: in words
T2 construct: host or cells: HEK blue hTLR8 reporter cells
T2 sequence (Q9NR97 27-1041): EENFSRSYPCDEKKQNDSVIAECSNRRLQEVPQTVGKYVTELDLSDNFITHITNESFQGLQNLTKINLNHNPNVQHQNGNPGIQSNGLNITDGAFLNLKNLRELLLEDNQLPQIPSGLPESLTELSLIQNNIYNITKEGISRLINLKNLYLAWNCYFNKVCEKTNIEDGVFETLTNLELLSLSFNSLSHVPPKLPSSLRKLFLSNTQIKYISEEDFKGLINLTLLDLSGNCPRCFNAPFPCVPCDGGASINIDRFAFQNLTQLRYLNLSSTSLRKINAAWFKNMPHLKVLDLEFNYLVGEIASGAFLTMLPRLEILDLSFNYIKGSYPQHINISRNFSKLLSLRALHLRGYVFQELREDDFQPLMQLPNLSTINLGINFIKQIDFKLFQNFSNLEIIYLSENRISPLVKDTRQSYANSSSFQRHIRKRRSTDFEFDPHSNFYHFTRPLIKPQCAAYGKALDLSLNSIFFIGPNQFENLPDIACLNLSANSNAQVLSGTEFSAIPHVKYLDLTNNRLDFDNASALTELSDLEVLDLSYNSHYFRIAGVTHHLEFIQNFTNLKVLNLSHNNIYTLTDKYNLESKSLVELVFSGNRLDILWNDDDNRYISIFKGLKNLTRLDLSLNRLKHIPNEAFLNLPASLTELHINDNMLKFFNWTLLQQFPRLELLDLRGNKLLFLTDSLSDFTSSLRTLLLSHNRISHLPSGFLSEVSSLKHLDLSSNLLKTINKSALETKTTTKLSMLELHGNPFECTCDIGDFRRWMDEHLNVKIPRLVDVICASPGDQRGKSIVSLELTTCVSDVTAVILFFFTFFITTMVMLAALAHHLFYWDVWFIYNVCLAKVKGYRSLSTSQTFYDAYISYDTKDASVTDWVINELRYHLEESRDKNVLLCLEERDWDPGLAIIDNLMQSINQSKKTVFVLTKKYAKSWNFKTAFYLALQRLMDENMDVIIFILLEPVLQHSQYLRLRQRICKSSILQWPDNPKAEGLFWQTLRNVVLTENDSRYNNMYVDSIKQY
Procedure: as §1, §2, §3

[3] = tested on: undifferentiated U937; test: Helix NIR dye exclusion in undifferentiated U937; type: cell-based; settings: 25 µM; in words
Procedure: Exclusion of Helix NIR (BioLegend) was used to assay membrane integrity following compound treatment. Culture conditions for U937 were as described above, undifferentiated cells were incubated with varying concentrations of compound or with solvent. Helix NIR was added to the cells to a final concentration of 10 nM, cells were incubated at RT for 10 min and acquired on a ZE5 Cell Analyzer (Bio-Rad). The cutoff for positive staining was set to approximately the 99th percentile of unstained cells.

[4] = tested on: PMA-differentiated U937; test: MTT viability assay in PMA-differentiated U937; type: cell-based; settings: 25 µM; PMA-differentiated U937, 2 days
[5] = Compound concentrations in organs and plasma after three consecutive daily s.c. treatments (Figure 6B, S7); type: in vivo, mice; settings: for compound plasma level at peak: s.c.; for concentration at 4 h / concentration at 28 h / concentration at 52 h: mouse, sc, repeated daily s.c. treatment; for concentration at 4 h: after 4 h; for concentration at 28 h: after 28 h; for concentration at 52 h: after 52 h
Procedure: All samples were extracted with 3 or 6 volumes acetonitrile containing terbuthylazine as an internal standard (ACN) relative to either sample weight or volume. Liquid samples (plasma, culture medium, cell suspensions in stability experiments) were diluted in either 3 (culture medium, cell suspensions) or 6 (plasma) volumes ACN, pellet and blood samples were extracted by addition of ACN followed by sonication for 5 min. Organ samples were digested with 0.5 µg/mg Proteinase K (Genaxxon) for 1 h at 50°C before being homogenized using a Fastprep FP-24 5G instrument (MP-Biomedicals). Homogenates were diluted with 6 volumes ACN and homogenized again. All extracts were cleared by centrifugation at ~20.000xg for 10 min at 4°C.
Quantification of analytes was performed on an Agilent 1260/1290 Infinity system fitted with an Agilent C18 Poroshell 120 column (4.6 x 50 mm, 2.7 µm) coupled to a triple quadrupole Sciex API 4000 MS/MS detector. The mobile phase was composed of water containing 0.1% formic acid (eluent A) and acetonitrile containing 0.1% formic acid (eluent B). Gradient used was: 5% B for 0.5 min, to 100% B in 4.5 min, 100% B for 2 min, to 5% B in 0.5 min, 5% for 2.5 min. MS detection parameters are listed in SI Table S1 .
Formulation. Test compounds were prepared for application in either 1% Tween 80, 9% PEG400 in ultrapure water (Biowest) (i.v., i.p., p.o. application) or 5 mM citric acid in 0.9% saline (Braun) (subcutaneous application). If compounds were administered subcutaneously, injections were carried out into the neck crease.
Collection of Samples. Mice were bled from the tail vein at various timepoints. Heparin (Sigma) or K2-EDTA (Sigma) was added to blood samples to a final […] concentration of 10-15 Unit or 5 mM. Plasma was generated by centrifugation at 6800xg for 8 min at 4°C and stored at -80°C until analyzed by ELISA or CBA. Animals were sacrificed after the indicated time points by CO2 inhalation. Heart blood and organs for compound quantification by HPLC-MS/MS were collected post mortem and stored at –20°C until extracted as described above.
Dotted lines indicate the time of repeated compound applications. (A) Cytokine levels in pooled tail plasma of mice from individual treatment groups (n=3 per pool and time point), error bars represent range of two replicate measurements. (B) Peripheral blood was collected from the tail vein before, 15, 30 60, 120, 240, 360 and 480 min after s.c. treatment. Compound concentration in peripheral plasma was analyzed by HPLC-MS/MS, data presented as mean ± SD.
Samples were collected 4 h, 28 h and 52 h after s.c. treatment. Skin samples were sampled
at time points 4 h and 52 h. Compound concentrations were analyzed by HPLC-MS/MS, data

[6] = 95% CI, HEK-blue human TLR7, 24 h, read-out: TLR7 EC50
[7] = Figure S3, axis c/[µM], pooled from 3 experiments, read-out: compound-specific EC50 in dose response plot, HEK Blue hTLR7
[8] = 95% CI, HEK-blue human TLR8, 24 h, read-out: TLR8 EC50
[9] = Figure S4, axis c/[µM], pooled from 3 experiments, read-out: compound-specific EC50 in dose response plot, HEK Blue hTLR8
[10] = brain, read-out: concentration in brain
[11] = liver, read-out: concentration in liver

| Compound | EC50 [1, 6] [µM] | EC50 [1, 7] [µM] | TLR7 activity rel. to assay max [1] | maximal induction in HEK-Blue hTLR-8 (lower than that of RSQ) [2] [%] | EC50 [2, 8] [µM] | EC50 [2, 9] [µM] | TLR8 activity rel. to assay max [2] | Average maximal activity in HEK-Blue hTLR7 relative to RSQ [1] [%] | SEAP secretion from HEK-Blue hTLR-8 [2] | effect on membrane integrity, dye exclusion assay in U937 [3] | MTT U937, percent MTT conversion relative to solvent controls [4] [%] | compound plasma level at peak ([5]; day 1, 60 min after application) [nM] | compound plasma level at peak ([5]; day 2, 60 min after application) [nM] | compound plasma level at peak ([5]; day 3, 60 min after application) [nM] | concentration at 4 h [5, 10] [nM] | concentration at 28 h [5, 10] [nM] | concentration at 52 h [5, 10] [nM] | concentration at 4 h [5, 11] [nM] | concentration at 28 h [5, 11] [nM] | concentration at 52 h [5, 11] [nM] |
| --- | --- | --- | --- | --- | --- | --- | --- | --- | --- | --- | --- | --- | --- | --- | --- | --- | --- | --- | --- | --- |
| CCCCc1nc2c(N)nc3ccccc3c2n1CCOCCOCCO [A4] | 1.5 to 2.1 | 1.76 | 84% ± 5% | 18 | 11 to 13 | 12.1 | 18% ± 8% |  |  |  |  |  |  |  |  |  |  |  |  |  |
| CCCCc1nc2c(N)nc3ccccc3c2n1CCOCCOCCN [A3] | 1 to 1.5 | 1.24 | 62% ± 9% | 36 | 8.2 to 8.5 | 8.36 | 36% ± 4% |  |  |  |  |  |  |  |  |  |  |  |  |  |
| CCCCc1nc2c(N)nc3ccccc3c2n1CCC1CCN(C(=O)OC(C)(C)C)CC1 [A1-boc] | 0.39 to 0.69 | 0.527 | 55% ± 7% |  |  |  | 4% ± 2% | 55 | close to baseline | negative effects on membrane integrity | 50 |  |  |  |  |  |  |  |  |  |
| CCCCc1nc2c(N)nc3ccccc3c2n1CC1CCN(C(=O)OC(C)(C)C)CC1 [A2-boc] | 0.23 to 0.47 |  | 86% ± 9% |  |  |  | 4% ± 1% | 86 | close to baseline |  |  |  |  |  |  |  |  |  |  |  |
| CCCCc1nc2c(N)nc3ccccc3c2n1CC1CCNCC1 [A2] | 0.075 to 0.12 | 0.0957 | 81% ± 13% | 57 | 2.8 to 3.1 | 2.96 | 57% ± 9% | 81 |  |  |  |  |  |  |  |  |  |  |  |  |
| CC(C)Cn1cnc2c(N)nc3ccccc3c21 [IMQ, Imiquimod] | 5.2 to 8.3 | 6.52 | 35% ± 7% |  |  |  |  |  |  |  |  | 796 | 606 | 608 | 32 | 135 | 177 | 630 | 824 | 645 |
